Measurements published in patent US4136188A, “Treatment of diabetes with 2-substituted-1,3-diazacyclic compounds” (priority 1976, dated 1979).

Legend:
[1] = test system: immunoreactive insulin (IRI); assay: Insulin releasing action; type: in vivo, male Wistar rat
Protocol: A saline solution containing a test compound was injected into the femoral vein of a normal male Wistar rat weighing about 200 g under pentobarbital anesthesia (5 rats/group). Control rats received a saline injection. Blood samples were taken from the tail vein before and 10, 20, 30 and 40 minutes after injection of the test compound, and were assayed for immunoreactive insulin (IRI) by the method of C. R. Morgan et al (Diabetes, 12, 115.1963).

[2] = test system: platelet aggregation; assay: Inhibitory action on collagen-induced platelet aggregation in platelet rich plasma; type: cell-based; details: concentration giving 50% inhibition of reaction rate of collagen-induced platelet aggregation, rat platelet rich plasma, 30° C; read-out: Inhibitory Action ID50
Protocol: Platelet rich plasma was prepared by centrifugation (1000 rpm, 5 min.) of fresh citrated rat blood. Fifty microliters of a solution containing a test compound at various concentrations were added to 0.4 ml of the platelet rich plasma, and the mixture was stirred for 1 minute at 1100 rpm and 30° C. Then, 50 μl of a collagen suspension was added to initiate platelet aggregation, which was measured turbidometrically according to G.V.R. Born (Nature, 194, 927, 1962). The ID50 values represent the concentration (mM) of the compound giving a 50% inhibition of the reaction rate of […] platelet aggregation.

[3] = Acute toxicity in rats by oral administration; details: rat, in vivo, male Donryu rats, mortality on the 7th day, Litchfield and Wilcoxon
Protocol: Acute Toxicity tests were carried out in rats by oral administration. Each LD50 was calculated from the mortality percentage on the 7th day according to the method of Litchfield and Wilcoxon. Ten male rats of the Donryu strain were used at each dose level.

[4] = test system: blood glucose; assay: Hypoglycemic activity: dose-effect relationship in normal rats; type: in vivo, male Wistar rats
Protocol: Five male Wistar rats weighing about 170g were used at each dosage level. […] 2, 3 and 5 hours after administration, a blood sample was taken from the tail vein of the rat and assayed for glucose by the glucose oxidase method.

[5] = test system: blood glucose; assay: Glucose tolerance test in normal rats; type: in vivo, male Wistar rats
Protocol: Five male Wistar rats weighing about 200g were used at each dose level. An aqueous solution or suspension of a test compound was orally administered by means of a stomach tube to each rat which had not been fed for 24 hours before administration. […] Blood samples were taken from the tail vein just before and 15, 30, 60 and 90 minutes after glucose loading, and were assayed for blood glucose. The glucose tolerance of the rats was estimated by the increase in blood glucose during the 90 minutes after glucose loading [formula]

[6] = test system: blood glucose; assay: Glucose tolerance test in streptozotocin-induced mildly diabetic rats; type: in vivo, male Wistar rats (streptozotocin diabetic)
Protocol: An aqueous solution or suspension of a test compound was orally administered to male Wistar rats which had not been fed for 24 hours prior to oral administration and which had been rendered diabetic for about 2 months by a single intravenous injection of streptozotocin (20 mg/kg body weight). Control diabetic rats received water. Unfed (fasted) and fed blood glucose levels of the rats were 89 ± 1~103 ± 4 mg/dl and 123 ± 2~189 ± 11 mg/dl, respectively. […] Blood samples were taken from the tail vein just before and 15, 30, 60 and 90 minutes after glucose loading, and were assayed for blood glucose. The glucose tolerance of the rats was estimated by the increase in blood glucose during the 90 minutes after glucose loading, i.e., [formula]

[7] = test system: serum lactate; assay: Effect on serum lactate level; type: in vivo, male Wister rat; details: 200 mg/kg daily oral for 4 days; for Percent of Initial Serum Lactate, 24 hrs: just before the 2nd dosing; for Percent of Initial Serum Lactate, 76 hrs: 3 hours after the last dosing
Protocol: An aqueous solution or suspension of a test compound was orally administered to a normal male Wister rat weighing about 200 g at a daily dose of 200 mg/kg body weight for 4 days (5 rats/group). Blood samples were taken consecutively from the tail vein, and were assayed for serum lactate by the method of Hans-Jurgens Hohorst (Methods of Enzymatic Analysis, ed. by Hans Ulrich Bergmayer, Academic Press Inc., New York, 1965).

[8] = test system: blood glucose; assay: Long-term administration in streptozotocin-induced diabetic rats: fed blood glucose; type: in vivo, male Wistar rats (streptozotocin diabetic); details: 485 ± 18 at start, control 415 ± 27
Protocol: (§1) Diabetes was induced in male Wistar rats weighing about 170 g by a single intraperitoneal (60 mg/kg body weight) or intravenous (35 mg/kg) injection of streptozotocin. […] These rats were treated with Compound A, tolubutamide or phenformin at a daily oral dose of 25, 50 or 10 mg/kg body weight, respectively. Control diabetic rats received no treatment. The treatment was started 1 month after streptozotocin injection and continued for 4 (tolubutamide and phenformin) or 5 months (Compound A).
Fed blood glucose levels of the rats were 485 ± 18 mg/dl at the start of the treatment and 415 ± 27 (control group), 423 ± 17 (Compound A group), 447 ± 15 (tolubutamide group) and 425 ± 29 mg/dl (phenformin group) at the end of the experiment.

[9] = test system: serum lipids; assay: Long-term administration in streptozotocin-induced diabetic rats: serum lipids; type: in vivo, male Wistar rats (streptozotocin diabetic); details: for hyperlipidemia / serum triglyceride tendency (in words): long-term administration, diabetic rats
Protocol: as §1
(§2) At the end of the experiment, the rats were sacrificed for histological examination of the kidneys and the liver and for determination of serum lipids.

[10] = test system: kidneys; assay: Long-term administration in streptozotocin-induced diabetic rats: histological examination of the kidneys; type: in vivo, male Wistar rats (streptozotocin diabetic)
Protocol: as §1, §2

[11] = 25 mg/kg i.v., control 50 ± 8, 0-40 minutes
[12] = 25 mg/kg oral, fasted normal rats
[13] = 10 mg/kg oral, 1 hour prior to glucose loading
[14] = 10 mg/kg oral, 1 hour prior to glucose loading (1 g/kg i.p.), control 121 ± 14 (A), 127 ± 8 (B, C)
[15] = 10 mg/kg oral, 1 hour prior to glucose loading, control 265 ± 21 (A), 206 ± 18 (B, C)
[16] = 10 mg/kg daily, 4 months, 7 rats, * = significant, p < 0.05 vs. diabetic control
[17] = 20 mg/kg oral, given 30 minutes prior to glucose loading
[18] = 50 mg/kg daily, 4 months, 8 rats
[19] = 25 mg/kg daily, 5 months, 7 rats

## CN1CCCC1=NC(c1ccccc1)c1ccccc1 [Compound Q, Benzhydryl Lactamimide, reference compound]
[1]; [11]
  Insulin Released [ΣΔIRI (0-40)]: 198 ± 16 μunit/ml serum

## CN1CCN(C(=O)c2ccccc2)C1=NC(c1ccccc1)c1ccccc1 [Compound D, 1-methyl-2-benzhydrylimino-3-benzoylimidazolidine]
[2]
  IC50: 270 µM
[3]
  LD50 at 168 h: > 1000 mg/kg

## CN1CCN(C(=O)c2cccs2)C1=NC(c1ccccc1)c1ccccc1 [Compound E, 1-methyl-2-benzhydrylimino-3-thienoylimidazolidine]
[2]
  IC50: 130 µM
[3]
  LD50 at 168 h: > 1000 mg/kg

## 2-benzhydryliminoimidazolidine hydrochloride [Example 3]
[4]; [12]
  Decrease in blood glucose (% based on the control), 3 hrs: 39%
  Decrease in blood glucose (% based on the control), 5 hrs: 39%

## CN1CCN=C1CC(c1ccccc1)c1ccccc1 [Compound C, 1-methyl-2-(2,2-diphenylethyl)-2-imidazoline]
[5]; [13]
  Increase in glucose tolerance: 26.0%
[5]; [14]
  Increase in blood glucose during the 90 minutes after glucose loading, test compound (head [drawing 13]): 94 ± 8
[6]; [13]
  Improvement of glucose tolerance: 17.5%
[6]; [15]
  Increase in blood glucose during the 90 minutes after glucose loading, test compound (head [drawing 15]): 170 ± 15
[1]; [11]
  Insulin Released [ΣΔIRI (0-40)]: 214 ± 17 μunit/ml serum
[2]
  IC50: 120 µM

## [H]/N=C(/N)N/C(=N/[H])NCCc1ccccc1 [Phenformin, phenformin, reference compound]
[4]; Dose = 100 mg/kg oral
  Decrease in blood glucose (% based on the control), 2 hrs: 10%
  Decrease in blood glucose (% based on the control), 3 hrs: 15%
  Decrease in blood glucose (% based on the control), 5 hrs: 15%
[7]
  Percent of Initial Serum Lactate, 24 hrs: 196.6%
  Percent of Initial Serum Lactate, 76 hrs: 283.6%
[8]; 10 mg/kg daily oral, 4 months
  Fed blood glucose level at the end of the experiment: 425 ± 29 mg/dL
[9]; [16]
  Serum cholesterol: 180.0 % of control
  Serum free fatty acid: 157.0 % of control
  Serum triglyceride: 225.7 % of control
[9]
  hyperlipidemia / serum triglyceride tendency (in words): increased tendency of hyperlipidemia

## CN1CCN(C(=O)c2cccnc2)C1=NC(c1ccccc1)c1ccccc1 [Compound F, 1-methyl-2-benzhydrylimino-3-nicotinoyl-imidazolidine]
[2]
  IC50: 480 µM

## CN1CCCC1=NC(c1ccccc1)c1ccccc1 [Compound Z, reference compound]
[7]
  Percent of Initial Serum Lactate, 24 hrs: 152.1%
  Percent of Initial Serum Lactate, 76 hrs: 218.8%

## CCCCNC(=O)NS(=O)(=O)c1ccc(C)cc1 [Tolubutamide, tolubutamide, reference compound]
[4]; [12]
  Decrease in blood glucose (% based on the control), 2 hrs: 20%
  Decrease in blood glucose (% based on the control), 3 hrs: 24%
  Decrease in blood glucose (% based on the control), 5 hrs: 20%
[5]; [17]
  Increase in glucose tolerance: 31.4%
[5]; 20 mg/kg oral, given 30 minutes prior to glucose loading (1 g/kg i.p.), control 121 ± 14
  Increase in blood glucose during the 90 minutes after glucose loading, test compound (head [drawing 13]): 83 ± 14
[6]; [17]
  Improvement of glucose tolerance: 32.6%
[6]; 20 mg/kg oral, given 30 minutes prior to glucose loading, 3 rats, control 265 ± 21
  Increase in blood glucose during the 90 minutes after glucose loading, test compound (head [drawing 15]): 179 ± 23
[1]; 50 mg/kg i.v., control 50 ± 8, 0-40 minutes
  Insulin Released [ΣΔIRI (0-40)]: 189 ± 26 μunit/ml serum
[1]; 50 mg/kg i.v., second column (control 42 ± 19), 0-40 minutes
  Insulin Released [ΣΔIRI (0-40)]: 141 ± 14 μunit/ml serum
[8]; 50 mg/kg daily oral, 4 months
  Fed blood glucose level at the end of the experiment: 447 ± 15 mg/dL
[9]; [18]
  Serum free fatty acid: 133.0 % of control
  Serum triglyceride: 186.8 % of control
[9]; 50 mg/kg daily, 4 months, 8 rats, * = significant, p < 0.05 vs. diabetic control
  Serum cholesterol: 150.0 % of control
[9]
  hyperlipidemia / serum triglyceride tendency (in words): increased tendency of hyperlipidemia
[10]
  kidney histology: diffuse glomerulosclerosis and tubular alterations (in words): to some extent, deteriorated

## c1ccc(C(CC2=NCCN2)c2ccccc2)cc1 [Compound B, 2-(2,2-diphenylethyl)-2-imidazoline]
[5]; [13]
  Increase in glucose tolerance: 96.9%
[5]; [14]
  Increase in blood glucose during the 90 minutes after glucose loading, test compound (head [drawing 13]): 4 ± 12
[6]; [13]
  Improvement of glucose tolerance: 74.8%
[6]; [15]
  Increase in blood glucose during the 90 minutes after glucose loading, test compound (head [drawing 15]): 52 ± 12
[1]; [11]
  Insulin Released [ΣΔIRI (0-40)]: 250 ± 13 μunit/ml serum
[2]
  IC50: 50 µM
[7]
  Percent of Initial Serum Lactate, 24 hrs: 139.6%
  Percent of Initial Serum Lactate, 76 hrs: 113.3%
[3]
  LD50 at 168 h: 562 mg/kg

## CN1CCNC1=NC(c1ccccc1)c1ccccc1 [Compound A, 1-methyl-2-benzhydryliminoimidazolidine]
[5]; [13]
  Increase in glucose tolerance: 52.1%
[5]; [14]
  Increase in blood glucose during the 90 minutes after glucose loading, test compound (head [drawing 13]): 58 ± 4
[6]; [13]
  Improvement of glucose tolerance: 43.0%
[6]; [15]
  Increase in blood glucose during the 90 minutes after glucose loading, test compound (head [drawing 15]): 151 ± 43
[1]; 25 mg/kg i.v., second column (control 42 ± 19), 0-40 minutes
  Insulin Released [ΣΔIRI (0-40)]: 208 ± 21 μunit/ml serum
[2]
  IC50: 320 µM
[7]
  Percent of Initial Serum Lactate, 24 hrs: 114.9%
  Percent of Initial Serum Lactate, 76 hrs: 94.6%
[8]; 25 mg/kg daily oral, 5 months
  Fed blood glucose level at the end of the experiment: 423 ± 17 mg/dL
[9]; [19]
  Serum cholesterol: 78.7 % of control
  Serum free fatty acid: 86.1 % of control
[9]; 25 mg/kg daily, 5 months, 7 rats, * = significant, p < 0.05 vs. diabetic control
  Serum triglyceride: 53.0 % of control
[3]
  LD50 at 168 h: 660 mg/kg

## 1-methyl-2-benzhydryliminoimidazolidine.hydroiodide [Example 4]
[4]; [12]
  Decrease in blood glucose (% based on the control), 3 hrs: 32%
  Decrease in blood glucose (% based on the control), 5 hrs: 19%
